Measurements published in PubChem BioAssay (NCI).
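Grown in 96-well plates, cells were treated for 48 hours with each compound at five concentrations. Insufficient inhibition: endpoint recorded as highest concentration tested. Here, GI50 denotes the concentration required for 50% inhibition of growth. TGI denotes the concentration required for complete inhibition of growth.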

What was measured:
Assay in all cases: growth of human tumour cells (NCI), 48 h
[1] = system: 786-0 renal
[2] = system: A498 renal
[3] = system: A549 NSCLC
[4] = system: ACHN renal
[5] = system: BT-549 breast
[6] = system: CAKI-1 renal
[7] = system: CCRF-CEM leukemia
[8] = system: COLO 205 colon
[9] = system: DU-145 prostate
[10] = system: EKVX NSCLC
[11] = system: HCC-2998 colon
[12] = system: HCT-116 colon
[13] = system: HCT-15 colon
[14] = system: HL-60(TB) leukemia
[15] = system: HOP-62 NSCLC
[16] = system: HOP-92 NSCLC
[17] = system: HS 578T breast
[18] = system: HT29 colon
[19] = system: IGROV1 ovarian
[20] = system: K-562 leukemia
[21] = system: KM12 colon
[22] = system: LOX IMVI melanoma
[23] = system: M14 melanoma
[24] = system: MALME-3M melanoma
[25] = system: MCF7 breast
[26] = system: MDA-MB-231 breast
[27] = system: MDA-MB-435
[28] = system: MDA-MB-468 breast
[29] = system: MOLT-4 leukemia
[30] = system: NCI-H226 lung
[31] = system: NCI-H23 lung
[32] = system: NCI-H460 lung
[33] = system: NCI-H522 lung
[34] = system: NCI/ADR-RES ovarian
[35] = system: OVCAR-3 ovarian
[36] = system: OVCAR-4 ovarian
[37] = system: OVCAR-5 ovarian
[38] = system: OVCAR-8 ovarian
[39] = system: PC-3 prostate
[40] = system: RPMI-8226 leukemia
[41] = system: RXF 393 renal
[42] = system: SF-268 CNS
[43] = system: SF-295 CNS
[44] = system: SF-539 CNS
[45] = system: SK-MEL-2 melanoma
[46] = system: SK-MEL-28 melanoma
[47] = system: SK-MEL-5 melanoma
[48] = system: SK-OV-3 ovarian
[49] = system: SN12C renal
[50] = system: SNB-19 CNS
[51] = system: SNB-75 CNS
[52] = system: SW-620 colon
[53] = system: T-47D breast
[54] = system: TK-10 renal
[55] = system: U251 CNS
[56] = system: UACC-257 melanoma
[57] = system: UACC-62 melanoma
[58] = system: UO-31 renal

O=C(c1ccc(OCCN2CCOCC2)cc1)C1[C@H](c2ccc(Cl)cc2)[C@@H](c2ccccc2)NC12C(=O)Nc1ccc(Br)cc12 (some centres not stated)
GI50 [1]: 2.95 µM
TGI [1]: 6.69 µM
GI50 [2]: 3.05 µM
TGI [2]: 7.55 µM
GI50 [3]: 4.27 µM
TGI [3]: > 16.3 µM
GI50 [4]: 3.84 µM
TGI [4]: 14.3 µM
GI50 [5]: 3.44 µM
TGI [5]: 8.33 µM
GI50 [6]: 3 µM
TGI [6]: > 16.3 µM
GI50 [7]: 4.42 µM
TGI [7]: 12.8 µM
GI50 [8]: 2.52 µM
TGI [8]: 4.93 µM
GI50 [9]: 3.91 µM
TGI [9]: 11.8 µM
GI50 [10]: 2.71 µM
TGI [10]: 11.2 µM
GI50 [11]: 2.61 µM
TGI [11]: 5.37 µM
GI50 [12]: 2.63 µM
TGI [12]: 5.45 µM
GI50 [13]: 2.69 µM
TGI [13]: 6.23 µM
GI50 [14]: 4.2 µM
TGI [14]: 12 µM
GI50 [15]: 2.83 µM
TGI [15]: 6.58 µM
GI50 [16]: 2.35 µM
TGI [16]: 6.69 µM
GI50 [17]: 2.58 µM
TGI [17]: 7.19 µM
GI50 [18]: 2.49 µM
TGI [18]: 5.38 µM
GI50 [19]: 3.32 µM
TGI [19]: 9.74 µM
GI50 [20]: 3.87 µM
TGI [20]: > 16.3 µM
GI50 [21]: 2.98 µM
TGI [21]: 7.26 µM
GI50 [22]: 2.43 µM
TGI [22]: 4.59 µM
GI50 [23]: 2.56 µM
TGI [23]: 5.44 µM
GI50 [24]: 2.39 µM
TGI [24]: 5.09 µM
GI50 [25]: 2.92 µM
TGI [25]: 10.2 µM
GI50 [26]: 2.66 µM
TGI [26]: 5.09 µM
GI50 [27]: 3.17 µM
TGI [27]: 7.28 µM
GI50 [28]: 2.83 µM
TGI [28]: 7.65 µM
GI50 [29]: 2.9 µM
TGI [29]: 10.2 µM
GI50 [30]: 2.94 µM
TGI [30]: 7.82 µM
GI50 [31]: 2.87 µM
TGI [31]: 6.76 µM
GI50 [32]: 2.8 µM
TGI [32]: 5.59 µM
GI50 [33]: 3.39 µM
TGI [33]: 8.58 µM
GI50 [34]: 3.87 µM
TGI [34]: 12.1 µM
GI50 [35]: 2.56 µM
TGI [35]: 6.91 µM
GI50 [36]: 4.33 µM
TGI [36]: > 16.3 µM
GI50 [37]: 2.95 µM
TGI [37]: 9.56 µM
GI50 [38]: 4.37 µM
TGI [38]: > 16.3 µM
GI50 [39]: 2.96 µM
TGI [39]: 9.34 µM
GI50 [40]: 4.05 µM
TGI [40]: 16.1 µM
GI50 [41]: 1.84 µM
TGI [41]: 4.57 µM
GI50 [42]: 3.66 µM
TGI [42]: > 16.3 µM
GI50 [43]: 2.4 µM
TGI [43]: 4.94 µM
GI50 [44]: 2.73 µM
TGI [44]: 5.19 µM
GI50 [45]: 2.32 µM
TGI [45]: 4.8 µM
GI50 [46]: 2.7 µM
TGI [46]: 5.08 µM
GI50 [47]: 2.69 µM
TGI [47]: 5.11 µM
GI50 [48]: 4.46 µM
TGI [48]: > 16.3 µM
GI50 [49]: 2.35 µM
TGI [49]: 4.53 µM
GI50 [50]: 4.46 µM
TGI [50]: > 16.3 µM
GI50 [51]: 2.37 µM
TGI [51]: > 16.3 µM
GI50 [52]: 2.78 µM
TGI [52]: 5.68 µM
GI50 [53]: 3.09 µM
TGI [53]: > 16.3 µM
GI50 [54]: 3.62 µM
TGI [54]: 11.1 µM
GI50 [55]: 2.6 µM
TGI [55]: 5.52 µM
GI50 [56]: 3.69 µM
TGI [56]: 13 µM
GI50 [57]: 2.22 µM
TGI [57]: 4.46 µM
GI50 [58]: 2.57 µM
TGI [58]: 7.86 µM

CN1CCCN(Cc2ccc(C(=O)Nc3cccc(Nc4ccc5c(O)cccc5n4)c3)cc2C(F)(F)F)CC1
GI50 [1]: 2.06 µM
TGI [1]: 3.8 µM
GI50 [2]: 15.3 µM
TGI [2]: 29 µM
GI50 [3]: 3.63 µM
TGI [3]: 15.1 µM
GI50 [4]: 1.92 µM
TGI [4]: 3.74 µM
GI50 [5]: 1.8 µM
TGI [5]: 3.28 µM
GI50 [6]: 1.8 µM
TGI [6]: 3.94 µM
GI50 [7]: 2.07 µM
TGI [7]: > 100 µM
GI50 [9]: 3.27 µM
TGI [9]: 10.1 µM
GI50 [10]: 1.82 µM
TGI [10]: 3.5 µM
GI50 [11]: 1.8 µM
TGI [11]: 3.19 µM
GI50 [13]: 1.93 µM
TGI [13]: 4.04 µM
GI50 [14]: 2.35 µM
TGI [14]: 5.52 µM
GI50 [15]: 2.03 µM
TGI [15]: 4.58 µM
GI50 [16]: 1.64 µM
TGI [16]: 4.41 µM
GI50 [17]: 1.93 µM
TGI [17]: 4.85 µM
GI50 [18]: 1.92 µM
TGI [18]: 3.76 µM
GI50 [19]: 2.56 µM
TGI [19]: 6.88 µM
GI50 [20]: 2.18 µM
TGI [20]: > 100 µM
GI50 [21]: 1.98 µM
TGI [21]: 3.99 µM
GI50 [22]: 1.63 µM
TGI [22]: 2.99 µM
GI50 [23]: 1.89 µM
TGI [23]: 4.49 µM
GI50 [24]: 1.7 µM
TGI [24]: 3.14 µM
GI50 [25]: 1.68 µM
TGI [25]: 3.2 µM
GI50 [26]: 1.65 µM
TGI [26]: 3.18 µM
GI50 [27]: 1.78 µM
TGI [27]: 3.6 µM
GI50 [28]: 1.66 µM
TGI [28]: 3.13 µM
GI50 [29]: 2.11 µM
TGI [29]: 6.94 µM
GI50 [30]: 16.7 µM
TGI [30]: 46.8 µM
GI50 [31]: 1.78 µM
TGI [31]: 3.31 µM
GI50 [33]: 1.84 µM
TGI [33]: 3.51 µM
GI50 [34]: 6.43 µM
TGI [34]: 68.5 µM
GI50 [35]: 1.97 µM
TGI [35]: 4.41 µM
GI50 [36]: 3.83 µM
TGI [36]: 15.4 µM
GI50 [37]: 11.4 µM
TGI [37]: 23.9 µM
GI50 [38]: 2.51 µM
TGI [38]: 6.22 µM
GI50 [39]: 1.87 µM
TGI [39]: 5.73 µM
GI50 [40]: 2.89 µM
TGI [40]: 9.36 µM
GI50 [41]: 1.85 µM
TGI [41]: 3.71 µM
GI50 [42]: 2.14 µM
TGI [42]: 5.24 µM
GI50 [43]: 1.67 µM
TGI [43]: 3.07 µM
GI50 [44]: 1.7 µM
TGI [44]: 3.12 µM
GI50 [45]: 1.81 µM
TGI [45]: 3.46 µM
GI50 [46]: 1.82 µM
TGI [46]: 3.27 µM
GI50 [47]: 1.72 µM
TGI [47]: 3.09 µM
GI50 [48]: 11.1 µM
TGI [48]: 27.1 µM
GI50 [50]: 2.03 µM
TGI [50]: 3.91 µM
GI50 [51]: 1.32 µM
TGI [51]: 7.46 µM
GI50 [52]: 1.95 µM
TGI [52]: 3.44 µM
GI50 [53]: 3.46 µM
TGI [53]: 13.3 µM
GI50 [54]: 2.8 µM
TGI [54]: 8.95 µM
GI50 [56]: 1.6 µM
TGI [56]: 3.2 µM
GI50 [57]: 1.69 µM
TGI [57]: 3.13 µM
GI50 [58]: 2.04 µM
TGI [58]: 4.96 µM
